Source: ChEMBL document CHEMBL1828524, “Monoamine oxidase inhibition by selected anilide derivatives” (Eur J Med Chem, 2011)

How the values were obtained:
[1] = target: T1, Amine oxidase [flavin-containing] A (Homo sapiens, UniProt P21397); assay: Inhibition of human recombinant MAO-A assessed as oxidation of kynuramine to 4-hydroxyquinoline after 20 mins
T1 sequence (P21397 whole entry): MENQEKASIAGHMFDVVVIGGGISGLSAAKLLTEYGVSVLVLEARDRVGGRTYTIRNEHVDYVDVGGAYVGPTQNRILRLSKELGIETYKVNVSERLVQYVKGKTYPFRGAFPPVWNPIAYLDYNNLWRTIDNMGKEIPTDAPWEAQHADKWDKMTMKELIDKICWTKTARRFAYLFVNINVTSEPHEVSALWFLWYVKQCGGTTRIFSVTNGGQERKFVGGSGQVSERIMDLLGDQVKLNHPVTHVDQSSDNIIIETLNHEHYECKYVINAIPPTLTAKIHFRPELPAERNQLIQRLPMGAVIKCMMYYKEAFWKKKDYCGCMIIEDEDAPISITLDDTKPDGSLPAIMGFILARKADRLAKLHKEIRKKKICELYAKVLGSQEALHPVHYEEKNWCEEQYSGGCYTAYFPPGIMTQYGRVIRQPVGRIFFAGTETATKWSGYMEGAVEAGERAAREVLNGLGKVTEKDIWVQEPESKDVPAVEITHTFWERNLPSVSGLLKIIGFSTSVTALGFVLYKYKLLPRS

[2] = target: T2, Amine oxidase [flavin-containing] B (Homo sapiens, UniProt P27338); assay: Inhibition of human recombinant MAO-B assessed as oxidation of kynuramine to 4-hydroxyquinoline after 20 mins
T2 sequence (P27338 whole entry): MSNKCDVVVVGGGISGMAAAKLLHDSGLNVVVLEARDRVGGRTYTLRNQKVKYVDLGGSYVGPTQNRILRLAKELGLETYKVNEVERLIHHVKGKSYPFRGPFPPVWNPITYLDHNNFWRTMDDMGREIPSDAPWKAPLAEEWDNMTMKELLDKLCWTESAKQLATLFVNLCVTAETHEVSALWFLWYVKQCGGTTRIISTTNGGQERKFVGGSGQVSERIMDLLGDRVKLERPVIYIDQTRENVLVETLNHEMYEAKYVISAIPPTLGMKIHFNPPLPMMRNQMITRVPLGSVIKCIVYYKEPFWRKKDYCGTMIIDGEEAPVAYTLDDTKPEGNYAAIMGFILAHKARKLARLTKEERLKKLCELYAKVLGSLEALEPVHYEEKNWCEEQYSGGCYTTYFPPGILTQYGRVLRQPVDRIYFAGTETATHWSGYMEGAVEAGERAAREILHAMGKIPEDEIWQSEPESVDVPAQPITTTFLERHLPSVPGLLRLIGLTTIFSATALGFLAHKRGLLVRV

[3] = target: T1, Amine oxidase [flavin-containing] A; assay: Inhibition of human recombinant MAO-A assessed as oxidation of kynuramine to 4-hydroxyquinoline at 100 uM after 20 mins

With O=C(/C=C/c1ccccc1)Nc1cccc(Br)c1 the IC50 [1] was 16.7 µM and the IC50 [2] was 0.447 µM.

In the case of O=C(/C=C/C=C/c1ccccc1)Nc1ccccc1, the IC50 [2] is reported as 5.16 µM and the “inhibition (INH)” value [3] is reported as “Not Active”.

Cc1cccc(NC(=O)/C=C/C=C/c2ccccc2)c1 showed an IC50 [1] of 335 µM and an IC50 [2] of 6.65 µM.

With O=C(/C=C/C=C/c1ccccc1)Nc1cccc(Cl)c1 the IC50 [1] was 98.2 µM and the IC50 [2] was 2.2 µM.

O=C(/C=C/C=C/c1ccccc1)Nc1cccc(Br)c1 showed an IC50 [1] of 105 µM and an IC50 [2] of 2.73 µM.

O=C(C/C=C/c1ccccc1)Nc1ccccc1 gave an IC50 [1] of 297 µM and an IC50 [2] of 33.2 µM.

Cc1cccc(NC(=O)C/C=C/c2ccccc2)c1 was tested, and the IC50 [1] was 74.8 µM and the IC50 [2] was 48.1 µM.

O=C(C/C=C/c1ccccc1)Nc1cccc(Cl)c1 was tested, and the IC50 [1] was 58.4 µM and the IC50 [2] was 23.5 µM.

Work on O=C(C/C=C/c1ccccc1)Nc1cccc(Br)c1 yielded an IC50 [1] of 34.5 µM and an IC50 [2] of 30.9 µM.

In the case of O=C(/C=C/c1cccc(O)c1)Nc1cccc(Br)c1, the IC50 [2] is reported as 1.01 µM and the “inhibition (INH)” value [3] is reported as “Not Active”.

Work on O=C(/C=C/c1ccc(O)cc1)Nc1cccc(Br)c1 yielded an IC50 [1] of 35.6 µM and an IC50 [2] of 0.026 µM.

For N#Cc1cccc(/C=C/C(=O)Nc2cccc(Cl)c2)c1, the IC50 [1] was 13.5 µM and the IC50 [2] was 0.09 µM.

With N#Cc1cccc(/C=C/C(=O)Nc2cccc(Br)c2)c1 the IC50 [1] was 27.2 µM and the IC50 [2] was 0.059 µM.

In the case of N#Cc1ccc(/C=C/C(=O)Nc2cccc(Cl)c2)cc1, the IC50 [1] is reported as 184 µM and the IC50 [2] is reported as 0.407 µM.

N#Cc1ccc(/C=C/C(=O)Nc2cccc(Br)c2)cc1 gave an IC50 [1] of 36.2 µM and an IC50 [2] of 0.289 µM.

Cc1cccc(NC(=O)/C=C/c2ccccc2)c1 [N-M-TOLYLCINNAMAMIDE] showed an IC50 [1] of 48.1 µM and an IC50 [2] of 4.5 µM.
